Source: US8906868B2, “Aminoglycoside derivatives” (Rempex Pharmaceuticals, Inc., priority 2010, dated 2014)
Values after ≈ are worked out from the molar mass of the structure shown. Where two headings read alike, the source gives them in different places.

Assays:
ECM6006 aph(3′)-III = experiment: microbe, parasite or virus in culture; assay type: cell-based, Escherichia coli; conditions: for MIC: Escherichia coli, read-out: Compound MIC on Bacterial Strains: ECM6006 aph(3′)-III
Protocol: (§1) To compare microbiological activity of the test compounds, minimum inhibitory concentrations (MIC.s) were determined. Antibiotic MICs were obtained using the broth microdilution method according to Clinical and Laboratory Standards Institute (CLSI) approved guidelines (Methods for dilution antimicrobial susceptibility tests for bacteria that grow aerobically; approved standard—7th ed. CLSI document M7-A7. Clinical and Laboratory Standards Institute, Wayne, Pa., incorporated herein by reference in its entirety). Antibiotics were dissolved as specified by CLSI (Performance standards for antimicrobial susceptibility testing; Seventeenth informational supplement. CLSI document M100-S17. Clinical and Laboratory Standards Institute, Wayne, Pa., incorporated herein by reference in its entirety), and were serially diluted 2-fold in cation adjusted Mueller Hinton Broth (CaMHB) at 2× concentration. Bacterial inoculums were prepared in CaMHB by suspension of a colony from an agar plate that was prepared the previous day to obtain a final concentration of 5×10^5CFU/ml. The plates were incubated for 18 hours at 35° C. […] MIC.s were determined by reading the turbidity of plate wells using a SpectraMax Plus384 plate reader (Molecular Devices, Sunnyvale, Calif., USA) at 600 nm and were confirmed by visual inspection.
(§2) Activity of the test compounds was determined using QC strains and strains with known aminoglycoside resistance mechanisms (TABLE 3). This specific panel contained strains expressing enzymes that covalently modify N2″, N3 and N3′ positions.

ECM6009 aac(3)-II = experiment: microbe, parasite or virus in culture; assay type: cell-based, Escherichia coli; conditions: for MIC: Escherichia coli, read-out: Compound MIC on Bacterial Strains: ECM6009 aac(3)-II
Protocol: as §1, §2

ECM6010 ant(2″)-I = experiment: microbe, parasite or virus in culture; assay type: cell-based, Escherichia coli; conditions: for MIC: Escherichia coli, read-out: Compound MIC on Bacterial Strains: ECM6010 ant(2″)-I
Protocol: as §1, §2

ECM6011 aph(3′)-I = experiment: microbe, parasite or virus in culture; assay type: cell-based, Escherichia coli; conditions: for MIC: Escherichia coli, read-out: Compound MIC on Bacterial Strains: ECM6011 aph(3′)-I
Protocol: as §1, §2

ECM6003 rmtB = experiment: microbe, parasite or virus in culture; assay type: cell-based, Escherichia coli; conditions: for MIC: Escherichia coli, Table 3, read-out: Compound MIC on Bacterial Strains: ECM6003 rmtB
Protocol: as §1, §2
The panel also contained a strain expressing ribosomal RNA methylase, RmtB.

EC1002 aph(3′)-IV = experiment: organism not typed; assay type: cell-based; conditions: for MIC: read-out: Compound MIC on Bacterial Strains: EC1002 aph(3′)-IV
Protocol: as §1, §2

EC1001 acc(6′)-Ib = experiment: microbe, parasite or virus in culture; assay type: cell-based, Escherichia coli; conditions: for MIC: Escherichia coli, Table 4, read-out: Compound MIC on Bacterial Strains: Escherichia coli EC1001 acc(6′)-Ib
Protocol: as §1

[1] = tested on: ECM6007 aac(6′) + aph(2″); experiment: microbe, parasite or virus in culture; assay type: cell-based, Escherichia coli; conditions: for MIC: Escherichia coli, 18 h, Table 4, read-out: Compound MIC on Bacterial Strains: Escherichia coli ECM6007 aac(6′) + aph(2″)
Protocol: as §1

ACM1005 ATCC 19004 = experiment: MIC, broth microdilution; assay type: cell-based, Acinetobacter baumannii; conditions: for MIC: Acinetobacter baumannii, ATCC19004, Table 4, read-out: Compound MIC on Bacterial Strains: Acinetobacter baumannii ACM1005 ATCC 19004
Protocol: as §1

ACM1006 acc(6′)-Ib = experiment: microbe, parasite or virus in culture; assay type: cell-based, Acinetobacter baumannii; conditions: for MIC: Acinetobacter baumannii, Table 4, read-out: Compound MIC on Bacterial Strains: Acinetobacter baumannii ACM1006 acc(6′)-Ib
Protocol: as §1

PAM3072 aac(6′)-II = experiment: microbe, parasite or virus in culture; assay type: cell-based, Pseudomonas aeruginosa; conditions: for MIC: Pseudomonas aeruginosa, Table 5, read-out: Compound MIC on Bacterial Strains: Pseudomonas aeruginosa PAM3072 aac(6′)-II
Protocol: as §1

PAM3073 aac(6′)-I = experiment: microbe, parasite or virus in culture; assay type: cell-based, Pseudomonas aeruginosa; conditions: for MIC: Pseudomonas aeruginosa, Table 5, read-out: Compound MIC on Bacterial Strains: Pseudomonas aeruginosa PAM3073 aac(6′)-I
Protocol: as §1

Sa 287 aac(6′) + aph(2″) = experiment: microbe, parasite or virus in culture; assay type: cell-based, Staphylococcus aureus; conditions: for MIC: Staphylococcus aureus, 18 h, Table 5, read-out: Compound MIC on Bacterial Strains: Staphylococcus aureus Sa 287 aac(6′) + aph(2″)
Protocol: as §1

[2] = tested on: Escherichia coli (ATCC 25922); experiment: MIC, broth microdilution; conditions: for MIC: Escherichia coli
[3] = tested on: Staphylococcus aureus (ATCC 29213); experiment: MIC, broth microdilution; conditions: for MIC: Staphylococcus aureus
[4] = tested on: Klebsiella pneumonia (ATCC 43816); experiment: MIC, broth microdilution; conditions: Klebsiella pneumoniae, ATCC43816, read-out: Compound MIC on Bacterial Strains: K. pneumonia ATCC 43816
[5] = tested on: Pseudomonas aeruginosa (ATCC 27853); experiment: MIC, broth microdilution; conditions: for MIC: Pseudomonas aeruginosa
[6] = tested on: Acinetobacter baumannii (ATCC 19606); experiment: MIC, broth microdilution; conditions: Acinetobacter baumannii, ATCC19606, read-out: Compound MIC on Bacterial Strains: A. baumannii ATCC 19606
[7] = ATCC25922, read-out: Compound MIC on Bacterial Strains: E. coli ATCC 25922
[8] = ATCC25922, read-out: Compound MIC on Bacterial Strains: ECM6000 ATCC 25922
[9] = ATCC25922, read-out: Compound MIC on Bacterial Strains: Escherichia coli ECM6000 ATCC 25922
[10] = ATCC29213, read-out: Compound MIC on Bacterial Strains: S. aureus ATCC 29213, QC strain, Table 2
[11] = ATCC29213, read-out: Compound MIC on Bacterial Strains: Staphylococcus aureus SAM1000 ATCC 29213, Table 5
[12] = ATCC27853, read-out: Compound MIC on Bacterial Strains: P. aeruginosa ATCC 27853
[13] = ATCC27853, read-out: Compound MIC on Bacterial Strains: Pseudomonas aeruginosa PAM3034 ATCC 27853

Row | Molecule | MIC (ECM6006 aph(3′)-III) | MIC (ECM6009 aac(3)-II) | MIC (ECM6010 ant(2″)-I) | MIC (ECM6011 aph(3′)-I) | MIC (ECM6003 rmtB) | MIC (EC1002 aph(3′)-IV) | MIC (EC1001 acc(6′)-Ib) | MIC [1] | MIC (ACM1005 ATCC 19004) | MIC (ACM1006 acc(6′)-Ib) | MIC (PAM3072 aac(6′)-II) | MIC (PAM3073 aac(6′)-I) | MIC (Sa 287 aac(6′) + aph(2″)) | MIC [2, 7] | MIC [2, 8] | MIC [2, 9] | MIC [3, 10] | MIC [3, 11] | MIC [4] | MIC [5, 12] | also measured
1 | CN[C@@H]1C(O)[C@@H](OC2C(O)C(O[C@H]3O[C@H](CN)CCC3N)[C@@H](N)C[C@H]2NC(=O)[C@@H](O)[C@@H](O)CN)OCC1(C)O (stereo partly drawn) [Compound 21, (2S,3R)-4-amino-N-((1R,2S,3S,4R,5S)-5-amino-4-((2R,3R,6S)-3-amino-6-(aminomethyl)tetrahydro-2H-pyran-2-vyloxy)-2-((2R,3R,4R,5R)-3,5-dihydroxy-5-methyl-4-(methylamino)tetrahydro-2H-pyran-2-yloxy)-3-hydroxycyclohexyl)-2,3-dihydroxybutanamide] | 1 to 8 µg/mL (≈ 1.76 to 14.1 µM) | < 1 µg/mL | < 1 µg/mL | 1 to 8 µg/mL (≈ 1.76 to 14.1 µM) | 1 to 8 µg/mL (≈ 1.76 to 14.1 µM) | 1 to 8 µg/mL (≈ 1.76 to 14.1 µM) | > 8 µg/mL | < 1 µg/mL | 1 to 8 µg/mL (≈ 1.76 to 14.1 µM) | 1 to 8 µg/mL (≈ 1.76 to 14.1 µM) | > 8 µg/mL | 1 to 8 µg/mL (≈ 1.76 to 14.1 µM) | 1 to 8 µg/mL | < 1 µg/mL | 1 to 8 µg/mL (≈ 1.76 to 14.1 µM) | 1 to 8 µg/mL (≈ 1.76 to 14.1 µM) | < 1 µg/mL | < 1 µg/mL | < 1 µg/mL | < 1 µg/mL | MIC [5, 13]: 1 to 8 µg/mL (≈ 1.76 to 14.1 µM); MIC [6]: > 8 µg/mL
2 | NC[C@H]1O[C@H](O[C@H]2[C@H](O)[C@@H](O[C@H]3O[C@H](CO)[C@@H](O)[C@H](N)[C@H]3O)[C@H](N)C[C@@H]2N)[C@H](N)C[C@@H]1O [Tobramycin, reference compound] | 1 to 8 µg/mL (≈ 2.14 to 17.1 µM) | > 8 µg/mL | > 8 µg/mL | 1 to 8 µg/mL (≈ 2.14 to 17.1 µM) | > 8 µg/mL | < 1 µg/mL | > 8 µg/mL | > 8 µg/mL | < 1 µg/mL | > 8 µg/mL | > 8 µg/mL | > 8 µg/mL | > 8 µg/mL | < 1 µg/mL | < 1 µg/mL | < 1 µg/mL | < 1 µg/mL | < 1 µg/mL | < 1 µg/mL | < 1 µg/mL | MIC [5, 13]: < 1 µg/mL; MIC [6]: 1 to 8 µg/mL (≈ 2.14 to 17.1 µM)
3 | Gentamicin C1a [reference compound] |  |  |  |  |  |  |  |  |  |  |  |  |  |  |  |  |  |  |  |  | Compound MIC on Bacterial Strains: ECM6006 aph(3′)-III (ECM6006 aph(3′)-III): B (key: A: MIC of 1 μg/ml or less; B: MIC of greater than 1 μg/ml to 8 μg/ml; MIC of greater than 8 μg/ml); Compound MIC on Bacterial Strains: ECM6009 aac(3)-II (ECM6009 aac(3)-II): C (key: A: MIC of 1 μg/ml or less; B: MIC of greater than 1 μg/ml to 8 μg/ml; MIC of greater than 8 μg/ml); Compound MIC on Bacterial Strains: ECM6010 ant(2″)-I (ECM6010 ant(2″)-I): C (key: A: MIC of 1 μg/ml or less; B: MIC of greater than 1 μg/ml to 8 μg/ml; MIC of greater than 8 μg/ml); Compound MIC on Bacterial Strains: ECM6011 aph(3′)-I (ECM6011 aph(3′)-I): B (key: A: MIC of 1 μg/ml or less; B: MIC of greater than 1 μg/ml to 8 μg/ml; MIC of greater than 8 μg/ml); Compound MIC on Bacterial Strains: ECM6003 rmtB (ECM6003 rmtB): C (key: A: MIC of 1 μg/ml or less; B: MIC of greater than 1 μg/ml to 8 μg/ml; MIC of greater than 8 μg/ml); Compound MIC on Bacterial Strains: EC1002 aph(3′)-IV (EC1002 aph(3′)-IV): A (key: A: MIC of 1 μg/ml or less; B: MIC of greater than 1 μg/ml to 8 μg/ml; MIC of greater than 8 μg/ml); Compound MIC on Bacterial Strains: Escherichia coli EC1001 acc(6′)-Ib (EC1001 acc(6′)-Ib): C (key: A: MIC of 1 μg/ml or less; B: MIC of greater than 1 μg/ml to 8 μg/ml; MIC of greater than 8 μg/ml); Compound MIC on Bacterial Strains: Escherichia coli ECM6007 aac(6′) + aph(2″) [1]: B (key: A: MIC of 1 μg/ml or less; B: MIC of greater than 1 μg/ml to 8 μg/ml; MIC of greater than 8 μg/ml); Compound MIC on Bacterial Strains: Acinetobacter baumannii ACM1005 ATCC 19004 (ACM1005 ATCC 19004): A (key: A: MIC of 1 μg/ml or less; B: MIC of greater than 1 μg/ml to 8 μg/ml; MIC of greater than 8 μg/ml); Compound MIC on Bacterial Strains: Acinetobacter baumannii ACM1006 acc(6′)-Ib (ACM1006 acc(6′)-Ib): C (key: A: MIC of 1 μg/ml or less; B: MIC of greater than 1 μg/ml to 8 μg/ml; MIC of greater than 8 μg/ml); Compound MIC on Bacterial Strains: Pseudomonas aeruginosa PAM3072 aac(6′)-II (PAM3072 aac(6′)-II): C (key: A: MIC of 1 μg/ml or less; B: MIC of greater than 1 μg/ml to 8 μg/ml; MIC of greater than 8 μg/ml); Compound MIC on Bacterial Strains: Pseudomonas aeruginosa PAM3073 aac(6′)-I (PAM3073 aac(6′)-I): B (key: A: MIC of 1 μg/ml or less; B: MIC of greater than 1 μg/ml to 8 μg/ml; MIC of greater than 8 μg/ml); Compound MIC on Bacterial Strains: Staphylococcus aureus Sa 287 aac(6′) + aph(2″) (Sa 287 aac(6′) + aph(2″)): C (key: A: MIC of 1 μg/ml or less; B: MIC of greater than 1 μg/ml to 8 μg/ml; MIC of greater than 8 μg/ml); Compound MIC on Bacterial Strains: ECM6000 ATCC 25922 [2]: A (key: A: MIC of 1 μg/ml or less; B: MIC of greater than 1 μg/ml to 8 μg/ml; MIC of greater than 8 μg/ml); Compound MIC on Bacterial Strains: Escherichia coli ECM6000 ATCC 25922 [2]: A (key: A: MIC of 1 μg/ml or less; B: MIC of greater than 1 μg/ml to 8 μg/ml; MIC of greater than 8 μg/ml); Compound MIC on Bacterial Strains: Staphylococcus aureus SAM1000 ATCC 29213 [3]: A (key: A: MIC of 1 μg/ml or less; B: MIC of greater than 1 μg/ml to 8 μg/ml; MIC of greater than 8 μg/ml); Compound MIC on Bacterial Strains: Pseudomonas aeruginosa PAM3034 ATCC 27853 [5]: A (key: A: MIC of 1 μg/ml or less; B: MIC of greater than 1 μg/ml to 8 μg/ml; MIC of greater than 8 μg/ml)
